Measured values from PMC12030627, “Radioiodinated Bicyclic RGD Peptide Derivatives for Enhanced Tumor Accumulation” (Pharmaceuticals, 2025).
Like-named read-outs stand apart in the source and are kept apart here. Starred links: 1 amine or outer side, 2 acyl side, 3 side chain; linkers in the order of their positions; H or OH if unused. Positions of bridges follow the written chain, without caps; N, C: chain ends. Non-standard residues stand in square brackets, D forms with d. Residues, ends and D or L forms follow the SMILES beside them. *: point of attachment. TBMB = c1c(C[*:1])cc(C[*:3])cc1C[*:2]; Palmitoyl = CCCCCCCCCCCCCCCC(=O)*; Benzoyl(3-I) = O=C(c1cccc(I)c1)*; 4Abz = Nc1ccc(C(=O)O)cc1

Assay: Biodistribution in U-87 MG tumor-bearing mice
Format: in vivo, BALB/c nu-nu mice
Settings: male, BALB/c nu-nu, mouse, iv, 37 kBq, total radioactivity, U-87 MG-bearing mice, mean ± SD, n = 3; for tissue uptake at 1 h / tissue uptake dose at 1 h: 1 h after i.v. administration; for tissue uptake at 2 h / tissue uptake dose at 2 h: 2 h after i.v. administration; for tissue uptake at 6 h / tissue uptake dose at 6 h: 6 h after i.v. administration; for tissue uptake at 5 min / tissue uptake dose at 5 min: 5 min after i.v. administration; for tissue uptake at 0.5 h / tissue uptake dose at 0.5 h: 30 min after i.v. administration
Description: Animal experiments were performed in compliance with institutional animal care regulations, with the study protocol approved by the Experimental Animal Committee of Osaka Medical and Pharmaceutical University (Approval Numbers: 21–76, 22–76, and 23–76). Four-week-old male BALB/c nu-nu mice (Japan SLC, Shizuoka, Japan) were housed under a 12 h light/12 h dark cycle with free access to food and water. Tumor-bearing mice were established by suspending U-87 MG cells (2 × 10^6 cells/mouse) in PBS(–) and subcutaneously injecting 100 μL of the suspension into the right hind leg. For co-implantation models, A549 cells (2 × 10^6 cells/mouse) were suspended in PBS(–) and inoculated (100 μL) into the left hind leg of the same mice already inoculated with U-87 MG cells. Mice with tumor size approximately 10 mm in diameter, 4–5 weeks after inoculation, were used for biodistribution studies. Animals in which either tumor was not viable were excluded from the experiment.
U-87 MG-bearing mice (n = 42, 8–9 weeks old; 22–27 g) were randomly assigned into groups and administered [^125I]bcRGDpal or [^125I]bcRGDiba via intravenous injection (37 kBq in 100 μL of PBS containing 0.1% Tween 80 (PBS-T80)). At 5 min, 30 min, 1 h, 2 h, 6 h, 12 h, or 24 h post-injection, the mice were euthanized (n = 3 per time point). The heart, kidneys, liver, brain, pancreas, spleen, lung, small intestine, large intestine, muscle, skin, stomach, bone, and tumors were excised. Each organ’s weight and radioactivity were measured by a NaI well-type scintillation counter, and the % ID/g was calculated. To investigate the correlation between integrin expression and radioactivity accumulation, biodistribution at 2 h after administration of [^125I]bcRGDpal or [^125I]bcRGDiba was assessed in A549 and U-87 MG co-implantation mice (n = 5) using the same procedure. Additionally, co-implantation mice were injected with [^125I]bcRGDdimer (37 kBq/100 μL PBS-T80) and euthanized at 30 min, 2 h, and 4 h post-injection (n = 4 per time point), and % ID/g values were calculated as described above. The minimum sample size needed for the biodistribution study in U-87 MG-bearing mice was calculated using G Power software version 3.1.9.7. The calculation was based on a two-tailed test, with an effect size of 3.9, a significance level (α) of 0.05, and a statistical power (1 − β) of 0.8. […] The minimum required sample size for the biodistribution study in A549 and U-87 MG co-implantation mice was also calculated to be four animals per group (effect size = 2.5, α = 0.05, 1 − β = 0.8). To guarantee objective results, the experiment was carried out in a blinded manner. Specifically, drug administration and radioactivity measurements were conducted by different investigators to eliminate potential bias.

[1] = liver, read-out: Radioactivity in liver
[2] = lung, read-out: Radioactivity in lung
[3] = muscle, read-out: Radioactivity in muscle
[4] = pancreas, read-out: Radioactivity in pancreas
[5] = small intestine, read-out: Radioactivity in small intestine
[6] = spleen, read-out: Radioactivity in spleen
[7] = stomach, read-out: Radioactivity in stomach
[8] = thyroid, read-out: Radioactivity in thyroid

CCCCCCCCCCCCCCCC(=O)N[C@@H](CCCCNC(=O)c1cccc(I)c1)C(=O)N1CCC[C@H]1C(=O)N1CCC[C@H]1C(=O)N1CCC[C@H]1C(=O)N[C@@H](CO)C(=O)NCC(=O)Nc1ccc(C(=O)N[C@@H](CO)C(=O)NCC(=O)N[C@H]2CSCc3cc4cc(c3)CSC[C@@H](NC(=O)[C@H](CCC(N)=O)NC(=O)[C@@H]3CCCN3C(=O)[C@H](Cc3c[nH]cn3)NC2=O)C(=O)N[C@@H](CCCNC(=N)N)C(=O)NCC(=O)N[C@@H](CC(=O)O)C(=O)N[C@@H](C(N)=O)CSC4)cc1 [[^125I]bcRGDpal] (Palmitoyl-K(Benzoyl(3-I))PPPSG[4Abz]SGCHPQ[dC]RGD[dC]-NH2; linker 10-14-18 via TBMB)
tissue uptake at 1 h [1]: 15.8 ± 0.9 %ID/g
tissue uptake at 2 h [1]: 12.3 ± 0.3 %ID/g
tissue uptake at 6 h [1]: 6 ± 0.2 %ID/g
tissue uptake at 12 h (liver, 12 h after i.v. administration, read-out: Radioactivity in liver): 1.9 ± 0.2 %ID/g
tissue uptake at 24 h (liver, 24 h after i.v. administration, read-out: Radioactivity in liver): 0.5 %ID/g
tissue uptake at 5 min [2]: 11.8 ± 1.3 %ID/g
tissue uptake at 0.5 h [2]: 11.2 ± 1 %ID/g
tissue uptake at 1 h [2]: 9.6 ± 1.3 %ID/g
tissue uptake at 2 h [2]: 7.8 ± 1 %ID/g
tissue uptake at 6 h [2]: 4.4 ± 0.5 %ID/g
tissue uptake at 12 h (lung, 12 h after i.v. administration, read-out: Radioactivity in lung): 2.2 ± 0.3 %ID/g
tissue uptake at 24 h (lung, 24 h after i.v. administration, read-out: Radioactivity in lung): 0.6 ± 0.1 %ID/g
tissue uptake at 5 min [3]: 1.4 ± 0.3 %ID/g
tissue uptake at 0.5 h [3]: 1.6 ± 0.2 %ID/g
tissue uptake at 1 h [3]: 1.4 ± 0.2 %ID/g
tissue uptake at 2 h [3]: 1.1 ± 0.1 %ID/g
tissue uptake at 6 h [3]: 0.6 ± 0.1 %ID/g
tissue uptake at 12 h (muscle, 12 h after i.v. administration, read-out: Radioactivity in muscle): 0.3 %ID/g
tissue uptake at 24 h (muscle, 24 h after i.v. administration, read-out: Radioactivity in muscle): 0.1 %ID/g
tissue uptake at 5 min [4]: 2.8 ± 0.2 %ID/g
tissue uptake at 0.5 h [4]: 2.5 ± 0.3 %ID/g
tissue uptake at 1 h [4]: 1.9 ± 0.1 %ID/g
tissue uptake at 2 h [4]: 1.6 ± 0.1 %ID/g
tissue uptake at 6 h [4]: 1.2 ± 0.3 %ID/g
tissue uptake at 12 h (pancreas, 12 h after i.v. administration, read-out: Radioactivity in pancreas): 0.4 %ID/g
tissue uptake at 24 h (pancreas, 24 h after i.v. administration, read-out: Radioactivity in pancreas): 0.1 %ID/g
tissue uptake at 5 min [5]: 2.3 ± 0.2 %ID/g
tissue uptake at 0.5 h [5]: 4.5 ± 0.6 %ID/g
tissue uptake at 1 h [5]: 7 ± 0.3 %ID/g
tissue uptake at 2 h [5]: 9.3 ± 0.9 %ID/g
tissue uptake at 6 h [5]: 4 ± 0.2 %ID/g
tissue uptake at 12 h (small intestine, 12 h after i.v. administration, read-out: Radioactivity in small intestine): 1.9 ± 0.5 %ID/g
tissue uptake at 24 h (small intestine, 24 h after i.v. administration, read-out: Radioactivity in small intestine): 0.3 %ID/g
tissue uptake at 5 min [6]: 5.1 ± 0.4 %ID/g
tissue uptake at 0.5 h [6]: 5.9 ± 0.8 %ID/g
tissue uptake at 1 h [6]: 4.6 ± 0.6 %ID/g
tissue uptake at 2 h [6]: 3.7 ± 0.1 %ID/g
tissue uptake at 6 h [6]: 1.9 ± 0.2 %ID/g
tissue uptake at 12 h (spleen, 12 h after i.v. administration, read-out: Radioactivity in spleen): 0.8 ± 0.1 %ID/g
tissue uptake at 24 h (spleen, 24 h after i.v. administration, read-out: Radioactivity in spleen): 0.2 %ID/g
tissue uptake dose at 5 min [7]: 0.5 ± 0.1 %ID
tissue uptake dose at 0.5 h [7]: 0.6 ± 0.1 %ID
tissue uptake dose at 1 h [7]: 0.7 ± 0.1 %ID
tissue uptake dose at 2 h [7]: 0.8 ± 0.1 %ID
tissue uptake dose at 6 h [7]: 0.4 %ID
tissue uptake dose at 12 h (stomach, 12 h after i.v. administration): 0.4 ± 0.3 %ID
tissue uptake dose at 24 h (stomach, 24 h after i.v. administration): 0.1 ± 0.1 %ID
tissue uptake dose at 5 min [8]: 0.1 %ID
tissue uptake dose at 0.5 h [8]: 0.1 ± 0.1 %ID
tissue uptake dose at 1 h [8]: 0.1 ± 0.1 %ID
tissue uptake dose at 2 h [8]: 0.1 ± 0.1 %ID
tissue uptake dose at 6 h [8]: 0.1 %ID
